5 compounds from paper PMC5564600 (Oncotarget, 2017) can be followed below.

Test in all cases: biochemical
Common to all, as to assay type: binding

Test [1] addresses T1, panel of 442 kinases (Homo sapiens, UniProt Q15569).
T1 construct: purchased Ambit Biosciences (scanMAXX KINOMEscan)
The settings on record: kinase TESK1; for remaining activity at 1 µM: read-out: TESK1 (% of control at 1 µM).

The target in test [2] is T2, panel of 442 kinases (Homo sapiens, UniProt Q15418).
T2 construct: purchased Ambit Biosciences (scanMAXX KINOMEscan)
T2 sequence (Q15418 whole entry): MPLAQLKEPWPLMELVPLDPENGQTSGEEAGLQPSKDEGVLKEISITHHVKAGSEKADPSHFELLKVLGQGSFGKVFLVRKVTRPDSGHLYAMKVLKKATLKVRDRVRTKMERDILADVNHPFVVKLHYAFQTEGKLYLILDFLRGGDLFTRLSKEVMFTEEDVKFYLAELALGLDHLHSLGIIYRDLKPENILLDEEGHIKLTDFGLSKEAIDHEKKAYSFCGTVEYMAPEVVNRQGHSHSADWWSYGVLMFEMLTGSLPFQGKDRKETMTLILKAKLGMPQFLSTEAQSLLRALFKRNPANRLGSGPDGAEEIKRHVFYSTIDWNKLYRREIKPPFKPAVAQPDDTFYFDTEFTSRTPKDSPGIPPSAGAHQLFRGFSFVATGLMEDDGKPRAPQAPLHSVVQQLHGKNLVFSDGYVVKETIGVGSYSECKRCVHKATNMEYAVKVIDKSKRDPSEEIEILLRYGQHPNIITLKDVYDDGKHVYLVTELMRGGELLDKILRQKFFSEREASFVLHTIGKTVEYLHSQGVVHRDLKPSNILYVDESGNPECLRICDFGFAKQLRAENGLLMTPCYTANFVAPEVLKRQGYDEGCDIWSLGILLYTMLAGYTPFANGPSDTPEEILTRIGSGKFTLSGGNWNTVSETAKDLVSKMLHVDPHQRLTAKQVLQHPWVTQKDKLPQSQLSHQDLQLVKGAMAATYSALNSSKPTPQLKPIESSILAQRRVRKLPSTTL

In test [3] the target is T3, panel of 442 kinases (Homo sapiens, UniProt Q86YV6).
T3 construct: purchased Ambit Biosciences (scanMAXX KINOMEscan)
T3 sequence (Q86YV6 1-388): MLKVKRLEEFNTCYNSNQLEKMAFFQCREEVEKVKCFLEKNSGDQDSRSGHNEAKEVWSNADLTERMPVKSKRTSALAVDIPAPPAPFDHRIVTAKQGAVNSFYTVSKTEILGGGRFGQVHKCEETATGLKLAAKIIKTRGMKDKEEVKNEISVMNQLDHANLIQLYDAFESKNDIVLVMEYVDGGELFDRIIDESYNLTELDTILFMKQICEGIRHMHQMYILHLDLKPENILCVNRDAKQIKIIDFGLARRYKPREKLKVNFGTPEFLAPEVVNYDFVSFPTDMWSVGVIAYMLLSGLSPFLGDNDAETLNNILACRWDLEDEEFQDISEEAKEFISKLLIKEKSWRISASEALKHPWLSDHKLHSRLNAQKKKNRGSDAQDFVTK
The settings on record: kinase MYLK4; for remaining activity at 1 µM: read-out: % of control at 1 µM.

Test [4] deals with T4, panel of 442 kinases (Homo sapiens, UniProt Q02763).
T4 construct: purchased Ambit Biosciences (scanMAXX KINOMEscan)
As to conditions: kinase TIE2; for remaining activity at 1 µM: read-out: TIE2 (% of control at 1 µM).

Test [5] deals with T5, panel of 442 kinases (Homo sapiens, UniProt Q9H4B4).
T5 construct: purchased Ambit Biosciences (scanMAXX KINOMEscan)
T5 sequence (Q9H4B4 whole entry): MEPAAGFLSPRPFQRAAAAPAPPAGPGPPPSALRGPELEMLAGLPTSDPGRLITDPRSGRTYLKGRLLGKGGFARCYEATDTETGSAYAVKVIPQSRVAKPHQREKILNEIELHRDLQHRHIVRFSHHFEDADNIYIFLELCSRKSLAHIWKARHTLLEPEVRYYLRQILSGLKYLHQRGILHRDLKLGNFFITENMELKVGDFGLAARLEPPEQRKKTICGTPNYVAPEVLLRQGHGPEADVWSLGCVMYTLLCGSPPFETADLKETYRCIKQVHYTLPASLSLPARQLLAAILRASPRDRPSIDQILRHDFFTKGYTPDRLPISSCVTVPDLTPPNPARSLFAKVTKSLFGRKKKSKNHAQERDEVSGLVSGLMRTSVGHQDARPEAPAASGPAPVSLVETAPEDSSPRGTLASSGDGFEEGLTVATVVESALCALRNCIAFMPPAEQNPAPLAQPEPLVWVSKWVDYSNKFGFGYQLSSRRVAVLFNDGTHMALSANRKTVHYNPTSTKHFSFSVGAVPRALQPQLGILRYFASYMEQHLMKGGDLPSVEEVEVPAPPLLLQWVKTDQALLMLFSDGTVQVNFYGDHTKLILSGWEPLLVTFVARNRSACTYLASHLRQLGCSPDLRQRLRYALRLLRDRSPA
The settings on record: kinase PLK3; for remaining activity at 1 µM: read-out: PLK3 (% of control at 1 µM).

The test system of test [6] is panel of 442 kinases.
Test [7] deals with T6, panel of 442 kinases (Homo sapiens, UniProt P37173).
T6 construct: purchased Ambit Biosciences (scanMAXX KINOMEscan)
T6 sequence (P37173 23-567): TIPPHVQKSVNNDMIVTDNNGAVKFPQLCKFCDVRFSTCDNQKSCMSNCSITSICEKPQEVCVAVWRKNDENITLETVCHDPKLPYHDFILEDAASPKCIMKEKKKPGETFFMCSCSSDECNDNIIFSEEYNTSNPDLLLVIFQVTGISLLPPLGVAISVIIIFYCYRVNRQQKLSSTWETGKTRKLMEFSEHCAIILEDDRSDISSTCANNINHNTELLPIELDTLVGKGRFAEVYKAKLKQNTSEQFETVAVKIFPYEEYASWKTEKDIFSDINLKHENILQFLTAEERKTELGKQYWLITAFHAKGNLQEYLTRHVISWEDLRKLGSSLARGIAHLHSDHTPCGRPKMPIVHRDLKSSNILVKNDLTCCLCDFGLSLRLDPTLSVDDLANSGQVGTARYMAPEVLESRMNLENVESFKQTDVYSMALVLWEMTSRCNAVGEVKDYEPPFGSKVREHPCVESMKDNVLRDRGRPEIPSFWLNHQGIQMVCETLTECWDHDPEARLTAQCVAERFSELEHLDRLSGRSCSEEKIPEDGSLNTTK
As to conditions: kinase TGFBR2; for remaining activity at 1 µM: read-out: TGFBR2 (% of control at 1 µM).

Test [8] addresses T7, panel of 442 kinases (Homo sapiens, UniProt P52333).
T7 construct: purchased Ambit Biosciences (scanMAXX KINOMEscan)
T7 sequence (P52333 1-1124): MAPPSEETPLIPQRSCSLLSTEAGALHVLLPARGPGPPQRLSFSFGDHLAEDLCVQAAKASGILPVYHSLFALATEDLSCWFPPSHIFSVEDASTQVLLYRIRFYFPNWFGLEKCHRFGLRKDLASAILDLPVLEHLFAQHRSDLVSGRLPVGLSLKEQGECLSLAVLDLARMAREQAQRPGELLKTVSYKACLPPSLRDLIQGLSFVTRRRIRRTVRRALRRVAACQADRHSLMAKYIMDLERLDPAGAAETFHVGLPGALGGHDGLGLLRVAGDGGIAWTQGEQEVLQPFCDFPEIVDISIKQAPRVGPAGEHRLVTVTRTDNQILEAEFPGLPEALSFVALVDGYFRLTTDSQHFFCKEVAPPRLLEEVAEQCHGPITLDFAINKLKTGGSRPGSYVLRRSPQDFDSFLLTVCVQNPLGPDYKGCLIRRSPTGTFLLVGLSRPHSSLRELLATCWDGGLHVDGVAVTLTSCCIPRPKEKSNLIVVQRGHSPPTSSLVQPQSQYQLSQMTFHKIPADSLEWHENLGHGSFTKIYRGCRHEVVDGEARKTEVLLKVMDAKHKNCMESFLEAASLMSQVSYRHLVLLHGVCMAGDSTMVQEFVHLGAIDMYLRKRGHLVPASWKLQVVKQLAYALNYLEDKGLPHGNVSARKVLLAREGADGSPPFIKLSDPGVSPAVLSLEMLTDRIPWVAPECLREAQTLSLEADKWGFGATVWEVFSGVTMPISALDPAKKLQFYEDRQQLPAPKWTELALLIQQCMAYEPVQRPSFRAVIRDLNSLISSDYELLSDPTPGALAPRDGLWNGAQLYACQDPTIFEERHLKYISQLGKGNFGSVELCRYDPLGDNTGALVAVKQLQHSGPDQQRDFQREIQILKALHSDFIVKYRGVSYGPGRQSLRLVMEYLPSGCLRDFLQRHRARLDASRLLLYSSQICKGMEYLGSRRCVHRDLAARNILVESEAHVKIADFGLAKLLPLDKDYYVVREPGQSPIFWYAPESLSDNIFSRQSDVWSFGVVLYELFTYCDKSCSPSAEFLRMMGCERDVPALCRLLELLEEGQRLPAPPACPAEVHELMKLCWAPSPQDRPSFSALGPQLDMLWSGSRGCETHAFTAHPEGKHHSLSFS
The settings on record: kinase JAK3(JH1domain-catalytic); for remaining activity at 1 µM: read-out: % of control at 1 µM.

The target in test [9] is T8, panel of 442 kinases (Homo sapiens, UniProt Q05397).
T8 construct: purchased Ambit Biosciences (scanMAXX KINOMEscan)
T8 sequence (Q05397 whole entry): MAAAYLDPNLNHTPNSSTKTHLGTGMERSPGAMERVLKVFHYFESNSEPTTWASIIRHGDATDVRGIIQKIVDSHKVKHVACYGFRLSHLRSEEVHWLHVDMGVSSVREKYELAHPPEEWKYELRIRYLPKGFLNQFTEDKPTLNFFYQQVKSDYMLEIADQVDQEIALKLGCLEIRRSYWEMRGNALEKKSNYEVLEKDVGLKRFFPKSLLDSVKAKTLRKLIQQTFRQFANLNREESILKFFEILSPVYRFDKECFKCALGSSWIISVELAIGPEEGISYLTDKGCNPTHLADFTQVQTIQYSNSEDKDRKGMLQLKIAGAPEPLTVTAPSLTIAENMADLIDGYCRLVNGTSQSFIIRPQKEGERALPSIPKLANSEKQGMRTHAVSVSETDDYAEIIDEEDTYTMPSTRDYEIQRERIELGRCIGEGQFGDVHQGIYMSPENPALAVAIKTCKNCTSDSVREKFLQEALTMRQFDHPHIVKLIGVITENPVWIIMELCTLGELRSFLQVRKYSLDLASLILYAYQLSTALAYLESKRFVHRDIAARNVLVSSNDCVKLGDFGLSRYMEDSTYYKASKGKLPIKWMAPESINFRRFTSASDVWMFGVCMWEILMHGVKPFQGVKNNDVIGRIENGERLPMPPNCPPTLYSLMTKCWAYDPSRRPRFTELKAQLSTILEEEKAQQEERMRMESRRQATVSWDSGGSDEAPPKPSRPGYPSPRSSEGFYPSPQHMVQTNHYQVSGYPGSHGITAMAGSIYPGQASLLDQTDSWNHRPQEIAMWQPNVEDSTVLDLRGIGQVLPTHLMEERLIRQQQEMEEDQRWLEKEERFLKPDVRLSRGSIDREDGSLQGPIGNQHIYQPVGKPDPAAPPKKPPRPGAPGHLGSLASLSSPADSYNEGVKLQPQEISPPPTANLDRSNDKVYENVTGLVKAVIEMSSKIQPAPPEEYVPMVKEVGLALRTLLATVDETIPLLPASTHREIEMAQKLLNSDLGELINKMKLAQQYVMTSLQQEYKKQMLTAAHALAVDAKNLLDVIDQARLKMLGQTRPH
As to conditions: FAK; for remaining activity at 1 µM: read-out: % of control at 1 µM.

Test [10] addresses T9, panel of 442 kinases (Homo sapiens, UniProt Q13705).
T9 construct: purchased Ambit Biosciences (scanMAXX KINOMEscan)
The settings on record: ACVR2B; for remaining activity at 1 µM: read-out: % of control at 1 µM.

The mark [11] stands for this setting: kinase RSK1(Kin.Dom.1-N-terminal), read-out: RSK1(Kin.Dom.1-N-terminal) (% of control at 1 µM).
[12] abbreviates: kinase RSK1(Kin.Dom.2-C-terminal), read-out: RSK1(Kin.Dom.2-C-terminal) (% of control at 1 µM).
Setting [13] is: EGFR(L747-E749del, A750P), 1 µM.
[14] abbreviates: EGFR(L747-S752del, P753S), 1 µM.
Where [15] appears, read: kinase KIT(D816V), first of two lines so named (r206), 1 µM.
Where [16] appears, read: 10 µM, read-out: % of control at 10 µM.

SMILES strings stand for the structures. Values joined by “and” are separate entries in the source; they are usually repeats but may differ in a detail not shown here. Identical values can stand only once. Like-named read-outs stand apart in the source and are kept apart here.

T1 sequence (Q15569 whole entry): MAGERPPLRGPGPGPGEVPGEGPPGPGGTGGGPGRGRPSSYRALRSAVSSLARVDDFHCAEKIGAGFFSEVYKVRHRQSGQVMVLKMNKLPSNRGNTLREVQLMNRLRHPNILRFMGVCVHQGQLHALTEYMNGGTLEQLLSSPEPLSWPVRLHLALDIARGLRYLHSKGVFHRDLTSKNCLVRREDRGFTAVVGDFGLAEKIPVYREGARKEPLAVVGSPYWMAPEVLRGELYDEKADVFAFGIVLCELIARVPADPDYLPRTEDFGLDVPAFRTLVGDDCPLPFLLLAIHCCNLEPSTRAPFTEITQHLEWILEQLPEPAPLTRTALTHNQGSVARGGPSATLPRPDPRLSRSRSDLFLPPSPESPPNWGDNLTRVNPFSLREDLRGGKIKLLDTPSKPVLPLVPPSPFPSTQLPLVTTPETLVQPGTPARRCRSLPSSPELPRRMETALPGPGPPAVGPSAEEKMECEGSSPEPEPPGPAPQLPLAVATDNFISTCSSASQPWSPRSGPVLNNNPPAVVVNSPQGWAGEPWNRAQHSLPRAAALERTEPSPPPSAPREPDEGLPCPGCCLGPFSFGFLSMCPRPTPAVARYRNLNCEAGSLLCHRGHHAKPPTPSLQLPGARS
T9 sequence (Q13705 19-512): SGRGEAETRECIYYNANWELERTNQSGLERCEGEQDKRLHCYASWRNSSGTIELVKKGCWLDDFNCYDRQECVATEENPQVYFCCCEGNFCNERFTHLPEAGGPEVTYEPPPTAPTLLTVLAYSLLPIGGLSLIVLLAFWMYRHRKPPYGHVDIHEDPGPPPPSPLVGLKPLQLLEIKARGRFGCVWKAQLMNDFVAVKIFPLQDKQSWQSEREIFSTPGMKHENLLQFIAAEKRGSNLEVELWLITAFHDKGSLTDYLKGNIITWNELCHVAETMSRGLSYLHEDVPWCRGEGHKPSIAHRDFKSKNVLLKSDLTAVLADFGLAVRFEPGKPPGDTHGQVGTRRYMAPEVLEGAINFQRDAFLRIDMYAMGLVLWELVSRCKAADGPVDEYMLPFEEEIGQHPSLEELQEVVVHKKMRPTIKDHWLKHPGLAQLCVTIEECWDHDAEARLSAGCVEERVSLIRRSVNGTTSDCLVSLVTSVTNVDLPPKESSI

In the case of `COc1ncc(-c2ccc3nccc(-c4ccnnc4)c3c2)cc1NS(=O)(=O)c1ccc(F)cc1F` [Omipalisib], the remaining activity at 1 µM at panel of 442 kinases [1] worked out at 73%; on panel of 442 kinases [2] (setting [11]), 95%; on panel of 442 kinases [2] (setting [12]), 95%; at panel of 442 kinases [3], 84%; on panel of 442 kinases [4], 100%; at panel of 442 kinases [5], 82%. The remaining activity at 1 µM at panel of 442 kinases [7] came to 95%; on panel of 442 kinases [8] it was 82%; at panel of 442 kinases [9], 94%; at panel of 442 kinases [10] it was 100%. For the same compound, the “% of control at 1 µM” value is 92 % of control in the test on panel of 442 kinases [6] (setting [13]); 87 % of control in the test on panel of 442 kinases [6] (setting [14]); 100 % of control in the test with panel of 442 kinases [6] (EGFR(L747-T751del,Sins), 1 µM); 100 % of control in the test on panel of 442 kinases [6] (FLT3(ITD), 1 µM); 100 % of control with panel of 442 kinases [6] (setting [15]).

As for `Cn1c(=O)n(-c2ccc(C(C)(C)C#N)cc2)c2c3cc(-c4cnc5ccccc5c4)ccc3ncc21` [Dactolisib, 2-methyl-2-[4-(3-methyl-2-oxo-8-quinolin-3-yl-2,3-dihydroimidazo[4,5-c]quinolin-1-yl)-phenyl] propionitrile], the remaining activity at 1 µM on panel of 442 kinases [1] was 100%; at panel of 442 kinases [2] (setting [11]) it was 77%; at panel of 442 kinases [2] (setting [12]) it was 61%; on panel of 442 kinases [3] it was 95%; on panel of 442 kinases [4], 100%; on panel of 442 kinases [5], 88%. For the same compound, the remaining activity at 1 µM at panel of 442 kinases [7] came out at 100%; at panel of 442 kinases [8] it was 37%; at panel of 442 kinases [9], 90%; on panel of 442 kinases [10], 85%. Also, the “% of control at 1 µM” value in the test on panel of 442 kinases [6] (1 μM) is 81 % of control and 100 % of control and 86 % of control and 59 % of control; with panel of 442 kinases [6] (FLT3(ITD), 1 µM), 44 % of control.

Turning to `CS(=O)(=O)N1CCN(Cc2cc3nc(-c4cccc5[nH]ncc45)nc(N4CCOCC4)c3s2)CC1` [Pictilisib, 2-(1H-indazol-4-yl)-6-(4-methanesulfonyl-piperazin-1-ylmethyl)-4-morpholin-4-yl-t hieno[3,2-d]pyrimidine], the “% of control at 1 µM” value in the test on panel of 442 kinases [6] (1 μM) is 98 % of control and 70 % of control and 99 % of control and 77 % of control and 72 % of control.

In the case of `Nc1cc(C(F)(F)F)c(-c2cc(N3CCOCC3)nc(N3CCOCC3)n2)cn1` [Buparlisib], the remaining activity at 1 µM was found to be 92% on panel of 442 kinases [1]; 100% on panel of 442 kinases [2] (setting [11]); 97% on panel of 442 kinases [2] (setting [12]); 100% at panel of 442 kinases [3]; 100% on panel of 442 kinases [4]; 97% on panel of 442 kinases [5]. In addition, the remaining activity at 1 µM at panel of 442 kinases [7] was 98%; at panel of 442 kinases [8], 90%; on panel of 442 kinases [9], 100%; on panel of 442 kinases [10] it was 100%. The remaining activity at 10 µM at panel of 442 kinases [1] (10 µM, read-out: TESK1 (% of control at 10 µM)) came to 100%; at panel of 442 kinases [2] (kinase RSK1(Kin.Dom.1-N-terminal), read-out: RSK1(Kin.Dom.1-N-terminal) (% of control at 10 µM)), 100%; on panel of 442 kinases [2] (kinase RSK1(Kin.Dom.2-C-terminal), read-out: RSK1(Kin.Dom.2-C-terminal) (% of control at 10 µM)), 98%; at panel of 442 kinases [3] (setting [16]), 100%; on panel of 442 kinases [4] (10 µM, read-out: TIE2 (% of control at 10 µM)) it was 100%; at panel of 442 kinases [5] (10 µM, read-out: PLK3 (% of control at 10 µM)), 100%. Further, the remaining activity at 10 µM on panel of 442 kinases [7] (10 µM, read-out: TGFBR2 (% of control at 10 µM)) was 100%; at panel of 442 kinases [8] (setting [16]), 89%; on panel of 442 kinases [9] (setting [16]), 100%; on panel of 442 kinases [10] (setting [16]), 100%. In the test on panel of 442 kinases [6] (1 μM), the “% of control at 1 µM” value was 85 % of control and 100 % of control and 91 % of control and 86 % of control. Also, the “% of control at 10 µM” value with panel of 442 kinases [6] (10 μM) is 96 % of control and 100 % of control and 93 % of control and 88 % of control.

Consider `FC(F)c1nc2ccccc2n1-c1nc(N2CCOCC2)nc(N2CCOCC2)n1` [ZSTK474, 2-(difluoromethyl)-1-[4,6-di(4-morpholinyl)-1,3,5-triazin-2-yl]-1H-benzimidazole], for which the remaining activity at 1 µM was 96% on panel of 442 kinases [1]; 100% at panel of 442 kinases [2] (setting [11]); 83% at panel of 442 kinases [2] (setting [12]); 100% on panel of 442 kinases [3]; 100% on panel of 442 kinases [4]; 83% on panel of 442 kinases [5]. The remaining activity at 1 µM on panel of 442 kinases [7] is 100%; at panel of 442 kinases [8], 100%; at panel of 442 kinases [9], 90%; on panel of 442 kinases [10], 89%. Also, the “% of control at 1 µM” value was 89 % of control with panel of 442 kinases [6] (setting [13]); 100 % of control in the test with panel of 442 kinases [6] (setting [14]); 100 % of control in the test with panel of 442 kinases [6] (EGFR(L747-T751del,Sins), 1 µM); 99 % of control in the test with panel of 442 kinases [6] (FLT3(ITD), 1 µM); 100 % of control with panel of 442 kinases [6] (setting [15]).
